Read-outs that look alike come from different tables or passages of the source.
Tests used:
[1] = system: CymR-mediated expression (P2-cymlacZ fusion system); assay: Induction of expression in the P2-cymlacZ fusion system by candidate effectors; format: cell-based, Pseudomonas putida
Excerpt: The need to solubilize p-cumate (p-cumic acid) in organic solvent (e.g. ethanol or dimethyl formamide) is a great disadvantage. The present invention thus provides water-soluble effectors as well as possibly expanding the spectrum of inducers beyond p-cumate. At first, cumic alcohol, 4-methyl benzylalcohol, ethyltoluene, indole-2-carboxylic acid, indole-3-carboxylic acid, benzoic acid, 3- and 4-hydroxybenzoic acids, 3,4-dihyroxybenzoic acid and 2,4-dihydrobenzoic acid were tried. […] In this P2-cymlacZ fusion system, the threshold cumate concentration for induction is in the order of 0.002 millimolar (mM).
The sodium salt of cumic acid was also tested vs cumic acid (taken as cumate).
Both sodium benzoate and sodium toluate are ineffective.

293 CuO-GFP clone 13 = assay: Testing of cumate analogues as effector molecule (FIG. 16); format: cell-based
Excerpt: Of course cumate can be substituted for various cumate analogues also referred to as effector molecule as described before.
The Deposits were received by the authority on Apr. 10, 2002, and were given accession number IDA-100402-1 and IDA-100402-2, respectively. 293 CuO-GFP clone 13 was also deposited on Apr. 10, 2002 in the same IDA and was given accession number IDA-100401-3.

[2] = target: T1, CymR repressor in 293 cells (Pseudomonas putida, UniProt O33453); assay: Strategy 2: CymR-mediated repression of CMV5-operator LacZ reporters, transient transfection in 293 cells; format: cell-based
T1 construct: expressed in transfected cells; host or cells: 293 cells
T1 sequence (O33453 whole entry): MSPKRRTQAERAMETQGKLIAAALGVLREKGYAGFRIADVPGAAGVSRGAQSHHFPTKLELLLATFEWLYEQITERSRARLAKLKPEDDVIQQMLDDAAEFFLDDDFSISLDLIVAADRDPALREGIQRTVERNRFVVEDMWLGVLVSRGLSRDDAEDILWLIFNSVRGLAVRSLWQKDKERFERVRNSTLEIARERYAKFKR

[3] = target: CymR-VP16 transactivator in HeLa cells (Pseudomonas putida, UniProt O33453); assay: Cumate switch strategy 1: transient co-transfection, β-gal, HeLa cells; format: cell-based
CymR-VP16 transactivator in HeLa cells, sequence (O33453 whole entry, added parts left off): as the sequence (O33453 whole entry) above
Protocol: Transient transfections in 293 and HeLa cells were carried out using the calcium phosphate technique. One (1) ml of DNA-calcium phosphate precipitate contained 5 μg reporter, 250 ng activator/repressor (unless mentioned otherwise) and 3 μg seap in a total of 10 μg DNA. This was divided equally between two 60 mm plates, each containing 10^6 293 cells. One of the two plates received in addition 200 μg/ml cumate. Transient transfections in BMAD78-42 were carried out using Geneporter™ according to manufacturers directions. Briefly, 3 μg DNA (2 μg reporter, 25 ng transactivator and 0.5 μg seap) in 500 μl DMEM was added to 6×10^5 BMAd78-42 cells in DMEM. After 3 h 1 ml DMEM supplemented with 20% serum was added to the plates. […]
Measurement of Seap and β-gal activity Seap activity was measured in 50 μl of cell culture medium by adding 50 μl of 2× seap buffer (1M diethanolamine PH 9.8, 2 mM MgCl2, 10 mM 1-homoarginine and 20 mM p-nitrophenyl phosphate, disodium, hexahydrate Sigma 104 phosphatase substrate) and incubating at room temperature. OD405 was read using a plate reader at different intervals. This information was used to ensure that the enzyme activity was measured under conditions where the substrate was in excess. β-galactosidase activity was measured in transfected cell extracts. […] OD420 was measured at regular intervals until the reaction appeared to plateau. […]

[4] = target: CymR-VP16 transactivator in 293 cells (Pseudomonas putida, UniProt O33453); format: cell-based
CymR-VP16 transactivator in 293 cells, sequence (O33453 whole entry, added parts left off): as the sequence (O33453 whole entry) above
Protocol: Transient transfections in 293 and HeLa cells were carried out using the calcium phosphate technique. One (1) ml of DNA-calcium phosphate precipitate contained 5 μg reporter, 250 ng activator/repressor (unless mentioned otherwise) and 3 μg seap in a total of 10 μg DNA. This was divided equally between two 60 mm plates, each containing 10^6 293 cells. One of the two plates received in addition 200 μg/ml cumate. Transient transfections in BMAD78-42 were carried out using Geneporter™ according to manufacturers directions. Briefly, 3 μg DNA (2 μg reporter, 25 ng transactivator and 0.5 μg seap) in 500 μl DMEM was added to 6×10^5 BMAd78-42 cells in DMEM. After 3 h 1 ml DMEM supplemented with 20% serum was added to the plates. Half the samples received DMEM supplemented with 20% serum and 400 μg/ml cumate.
Measurement of Seap and β-gal activity Seap activity was measured in 50 μl of cell culture medium by adding 50 μl of 2× seap buffer (1M diethanolamine PH 9.8, 2 mM MgCl2, 10 mM 1-homoarginine and 20 mM p-nitrophenyl phosphate, disodium, hexahydrate Sigma 104 phosphatase substrate) and incubating at room temperature. OD405 was read using a plate reader at different intervals. This information was used to ensure that the enzyme activity was measured under conditions where the substrate was in excess. β-galactosidase activity was measured in transfected cell extracts. Cells were lysed 48 h post-transfection by three freeze-thaw cycles in 0.25M Tris.Hcl pH8. The cell lysate was centrifuged at 14,000×g and enzyme (β-galactosidase) activity was measured in the supernatant (cell extract) using a colorimetric assay containing 1 mM MgCl2, 0.9 mg/ml ONPG, and 66 mM sodium phosphate (pH 7.5). Reactions were incubated at 37° C. until a faint yellow color had developed. OD420 was measured at regular intervals until the reaction appeared to plateau. To measure low level activity (basal activity in the absence of transactivation) a chemiluminescent substrate was used. The reaction was performed using a kit from Roche diagnostics according to the instructions of the manufacturer.
To test the system, reporter and activator constructs as described in Example I above, were co-transfected into 293 cells by the calcium-phosphate technique. A plasmid carrying the secreted alkaline phosphatase coding sequence under the control of a constitutive promoter was included in all transfections and seap activity in the cell culture medium was used to normalize for transfection efficiency.

[5] = system: cumate activator (rAd vectors); assay: Co-infection with recombinant adenoviral reporter and activator viruses
mammalian cells = assay: Effect of cumate on morphology, growth and toxicity in mammalian cells; format: cell-based
[6] = system: CHO-cTA clones (cumate transactivator); assay: Adenoviral infection of CHO-cTA clones, total GFP fluorescence by flow cytometry; format: cell-based
Protocol: 1×10^6 CHO cells were transfected with 5 μg of pMPG-cTA-tk-neo-nls using 12 μl of LIPOFECTAMINE 2000 according to the instructions of the manufacturer. 1200 μg/ml G418 was added to the growth medium 48 h after transfection to select a pool of G418-resistant cells. Individual clones (CHO-cTA) were isolated from this pool by the method of limiting dilution.
CHO-cTA clones were infected with AdCMV5GFPq or AdCR5GFPq at MOIs of 100, 300 and 900 in the presence or absence of 200 μg/ml cumate. Forty-eight hours post-infection, cells were fixed in 2% paraformaldehyde in PBS. Total GFP fluorescence of the infected population was measured using an EPICS-XL flow cytometer (Coulter).

[7] = target: CymR-VP16 transactivator in BMAdE1/78-42 cells (Pseudomonas putida, UniProt O33453); format: cell-based
CymR-VP16 transactivator in BMAdE1/78-42 cells, sequence (O33453 whole entry, added parts left off): as the sequence (O33453 whole entry) above
Protocol: Measurement of Seap and β-gal activity Seap activity was measured in 50 μl of cell culture medium by adding 50 μl of 2× seap buffer (1M diethanolamine PH 9.8, 2 mM MgCl2, 10 mM 1-homoarginine and 20 mM p-nitrophenyl phosphate, disodium, hexahydrate Sigma 104 phosphatase substrate) and incubating at room temperature. OD405 was read using a plate reader at different intervals. This information was used to ensure that the enzyme activity was measured under conditions where the substrate was in excess. β-galactosidase activity was measured in transfected cell extracts. Cells were lysed 48 h post-transfection by three freeze-thaw cycles in 0.25M Tris.Hcl pH8. The cell lysate was centrifuged at 14,000×g and enzyme (β-galactosidase) activity was measured in the supernatant (cell extract) using a colorimetric assay containing 1 mM MgCl2, 0.9 mg/ml ONPG, and 66 mM sodium phosphate (pH 7.5). […] OD420 was measured at regular intervals until the reaction appeared to plateau. […]

293-CymR cells = format: cell-based; conditions: 293-CymR infected with rAd expressing VSVg
293-CymR clone 21 = format: cell-based; conditions: 200 μg/ml cumate, 48 h post-transfection
293-CuO-GFPq13# cells = assay: GFP expression from stably integrated pAdCMV5-CuO-GFPq in 293-CuO-GFPq13#; format: cell-based
Protocol: 1×10^6 293-CymR clone 21 were transfected with 10 μg of pAdCMV5-CuO-GFPq. GFP expression was induced by the addition of 200 μg/ml cumate and individual GFP positive cells were picked by Quixell™ (Caron, A. W., et al., Methods in cell science 22: 137-145, 2000).
293-CuO-GFPq13# were cultured in the presence and absence of cumate for 48 h. Photographs were taken using an inverted fluorescence microscope (Leica, Wetzlar, Germany). […] In the OFF state (FIG. 15B) only two GFP-positive cells are visible in the microscopic field.
Total GFP fluorescence was measured in the ON (9255) and OFF (3.75) states using an EPICS-XL flow cytometer (Coulter). The ON/OFF ratio for this clone was […].

293-CymR clones = assay: Infection of 293-CymR clones with AdCMV5-Og-LacZ, β-galactosidase activity; format: cell-based; conditions: 200 μg/ml cumate
Protocol: 1×10^6 293 cells were transfected with 10 μg of pCymR/tk-neo by the calcium phosphate technique. 400 μg/ml G418 was added to the growth medium 48 h after transfection to select a pool of G418-resistant cells. Individual clones (293-CymR) were isolated from this pool by the method of limiting dilution.
293CymR clones were infected with AdCMV5-Og-LacZ in the presence and absence of 200 μg/ml cumate. β-galactosidase activity was measured 48 h post-infection.

[8] = Water solubility of effectors; format: physicochemical

## O=C(O)c1ccc(O)c(O)c1 [3,4-dihyroxybenzoic acid]
[1]
  ability to act as inducer: none of these compounds could act as effective inducers

## O=C(O)c1cccc(O)c1 [3-hydroxybenzoic acid, 3- and 4-hydroxybenzoic acids]
[1]
  ability to act as inducer: none of these compounds could act as effective inducers

## Cc1ccc(CO)cc1 [4-methyl benzylalcohol]
[1]
  ability to act as inducer: none of these compounds could act as effective inducers

## CCCc1ccc(C(=O)O)cc1 [C4, p-Propylbenzoic acid]
293 CuO-GFP clone 13
  activity as activator (effector molecule): good activators

## CC(C)Cc1ccc(C(=O)O)cc1 [C6, p-isobutylbenzoic acid]
293 CuO-GFP clone 13
  activity as activator (effector molecule): good activators

## CN(C)c1ccc(C(=O)O)cc1 [C11, p-N-dimethylaminobenzoic acid]
293 CuO-GFP clone 13
  activity as activator (effector molecule): good activators

## CCNc1ccc(C(=O)O)cc1 [C13, p-N-ethylaminobenzoic acid]
293 CuO-GFP clone 13
  activity as activator (effector molecule): good activators

## CN(C)c1ccc(C(=O)O)cc1 [DM PABA, Di-methyl p-aminobenzoic acid]
[1]; 0.02 mM
  ability to act as inducer: effective inducers
[1]; 0.1 mM
  ability to act as inducer: just as good an inducer as parent cumate

## CCc1ccc(C(=O)[O-])cc1.[Na+] [Na^+ 4-ethylbenzoate]
[1]
  ability to act as inducer: acts as an inducer
  response compared with parental cumate: not as good as the parental cumate

## O=C(O)c1ccccc1 [benzoic acid, Benzoic acid]
[1]
  ability to act as inducer: none of these compounds could act as effective inducers

## CC(C)c1ccc(C(=O)O)cc1 [cumate, cumic acid]
[2]; nls-containing repressor, pAdCMV5-Og-LacZ
  activity of the unrepressed state recovered on addition of cumate: 61%
[2]; nls-containing repressor, pAdCMV5-Os-LacZ
  relief of repression on addition of cumate: relieved the repression completely
[2]; pAdCymR, both pAdCMV5-Os-LacZ and pAdCMV5-Og-LacZ
  relief of repression on addition of cumate: relieved the repression totally
[3]; pAdcTA1(+nls)
  decrease in activation by the transactivator on addition of cumate: 9.4 fold
[3]; pAdcTA1(−nls)
  reduction in activation on addition of cumate: 34 fold
[4]; pAdCR5LacZ + pAdcTA1(+nls), 200 μg/ml cumate
  reduction of activation on addition of cumate: 78%
[4]; pAdcTA1(−nls), 50 μg/ml cumate
  reduction of activation on addition of cumate: 86%
[4]; pAdcTA1(−nls), 100 μg/ml cumate
  reduction of activation on addition of cumate: 87%
[4]; pAdcTA1(−nls), 200 μg/ml cumate
  reduction of activation on addition of cumate: 89%
[5]; reporter moi 10, activator moi 0.1
  share of the increase obliterated by addition of cumate: 95%
[5]; reporter moi 10, activator moi 1
  share of the increase obliterated by addition of cumate: 98%
Mammalian cells; 200 μg/ml cumate in media, 4 weeks
  effects on morphology or growth rates: No visible effects
Mammalian cells; concentrations that effectively regulate gene expression
  toxicity to mammalian cells: does not appear to be toxic
[6]; AdCR5-GFPq MOI 100, 200 μg/ml cumate
  GFP expression over mock infected cells after addition of cumate: 2 fold
[6]; AdCR5-GFPq MOI 300, 200 μg/ml cumate
  GFP expression over mock infected cells after addition of cumate: 4.5 fold
[6]; AdCR5-GFPq MOI 900, 200 μg/ml cumate
  GFP expression over mock infected cells after addition of cumate: 20.6 fold
[7]; BMAdE1/78-42, pAdcTA1(+nls)
  reduction of activation on addition of cumate: 3.9 fold
[7]; BMAdE1/78-42, pAdcTA1(−nls)
  reduction in activation on addition of cumate: 22 fold
293-CymR cells
  induction of VSVg and syncitia formation on addition of cumate: induces the expression of VSVg
293-CymR clone 21
  VSVg expression on addition of cumate (western): clearly evident
[1]; P2-cymlacZ fusion system
  threshold cumate concentration for induction: ~0.002 mM
293-CuO-GFPq13# cells; 48 h culture
  cells positive for GFP expression in the presence of cumate: 100%
293-CuO-GFPq13# cells; clone 293-CuO-GFPq13#
  ON/OFF ratio of total GFP fluorescence: 246
293-CuO-GFPq13# cells; with cumate, flow cytometer
  Total GFP fluorescence, ON state: 9255
293-CymR clones; 293-CymR clone 21, AdCMV5-Og-LacZ
  ON/OFF ratio (β-gal with vs without cumate): 19
293-CymR clones; 293-CymR clone 22, AdCMV5-Og-LacZ
  ON/OFF ratio (β-gal with vs without cumate): 16
293-CymR clones; 293-CymR clone 23, AdCMV5-Og-LacZ
  ON/OFF ratio (β-gal with vs without cumate): 7.6
293 CuO-GFP clone 13
  activity as activator (effector molecule): good activators

## CC(C)c1ccc(CO)cc1 [cumic alcohol]
[1]
  ability to act as inducer: none of these compounds could act as effective inducers

## O=C(O)c1cc2ccccc2[nH]1 [indole-2-carboxylic acid]
[1]
  ability to act as inducer: none of these compounds could act as effective inducers

## O=C(O)c1c[nH]c2ccccc12 [indole-3-carboxylic acid]
[1]
  ability to act as inducer: none of these compounds could act as effective inducers

## O=C([O-])c1ccccc1.[Na+] [sodium benzoate]
[1]
  ability to act as inducer: ineffective

## CC(C)c1ccc(C(=O)[O-])cc1.[Na+] [sodium salt of cumic acid]
[1]
  threshold of concentration giving a response, vs cumic acid: did not change appreciably
[8]
  water solubility: water-soluble

## Na^+ trimethyl cumate
[1]
  response compared with parental cumate: not as good as the parental cumate
[1]; 0.1 mM
  ability to act as inducer: effective inducer

## ethyltoluene
[1]
  ability to act as inducer: none of these compounds could act as effective inducers

## sodium toluate
[1]
  ability to act as inducer: ineffective
